Patent US6660769B1, “N substituted 3-amino-2,2-di-c-alkyl-1,4-butyrolactones and 1,4-thiobutyrolactones for use as promoter of γ-aminobutyric acid activity and for treating nervous disorders and preparation method” (priority 1999, dated 2003)

What was measured:
[1] = target: T1, α1β2γ2 recombinant GABA-A receptors (Homo sapiens, UniProt P14867+P18507+P47870); assay: cell-based; conditions: α1β2γ2
T1 construct: expressed in transfected cells; host or cells: Xenopus laevis oocytes injected with cRNA

[2] = target: T2, α1β1 GABA-A recombinant receptors (Homo sapiens, UniProt P14867+P18505); assay: Two-electrode voltage clamp, modulation of GABA currents in Xenopus oocytes; format: cell-based
T2 construct: expressed in transfected cells; host or cells: Xenopus laevis oocytes injected with cRNA
T2 sequence (P14867 28-456): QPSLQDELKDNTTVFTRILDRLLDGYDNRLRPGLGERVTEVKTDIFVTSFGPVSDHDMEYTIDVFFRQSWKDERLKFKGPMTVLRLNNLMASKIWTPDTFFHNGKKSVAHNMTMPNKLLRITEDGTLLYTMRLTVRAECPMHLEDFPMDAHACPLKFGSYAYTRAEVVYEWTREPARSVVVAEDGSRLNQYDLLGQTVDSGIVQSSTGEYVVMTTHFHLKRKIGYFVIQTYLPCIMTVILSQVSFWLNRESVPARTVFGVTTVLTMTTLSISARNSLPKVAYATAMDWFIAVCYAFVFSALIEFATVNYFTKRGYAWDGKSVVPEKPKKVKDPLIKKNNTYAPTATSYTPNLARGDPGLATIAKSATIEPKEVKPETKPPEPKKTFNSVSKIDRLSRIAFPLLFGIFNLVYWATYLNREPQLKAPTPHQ
T2 sequence (P18505 26-474): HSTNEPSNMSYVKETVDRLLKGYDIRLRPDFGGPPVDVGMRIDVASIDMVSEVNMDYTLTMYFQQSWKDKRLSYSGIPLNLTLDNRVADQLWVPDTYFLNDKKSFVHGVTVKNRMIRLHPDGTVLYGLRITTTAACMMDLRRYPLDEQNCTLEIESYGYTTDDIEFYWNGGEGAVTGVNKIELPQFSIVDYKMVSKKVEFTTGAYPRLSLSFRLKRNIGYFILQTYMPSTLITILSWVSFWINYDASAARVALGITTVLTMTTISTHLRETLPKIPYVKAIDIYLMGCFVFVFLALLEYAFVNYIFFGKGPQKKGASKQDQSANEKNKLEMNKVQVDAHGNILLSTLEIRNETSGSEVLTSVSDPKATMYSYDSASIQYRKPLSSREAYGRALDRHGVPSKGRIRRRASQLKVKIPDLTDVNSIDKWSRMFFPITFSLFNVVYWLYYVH
Description: (§1) The compounds synthesized are also studied for their ability to cause opening of the channel of the GABA-A receptor or to allosterically modulate the currents caused by GABA. For this purpose, the GABA-A recombinant receptors are expressed in Xenopus oocytes. Briefly, Xenopus laevis oocytes are prepared, injected and defolliculated and the currents are recorded in the way described (E. Sigel, J. Physiol., 1987, 386, 73 and E. Sigel, R. Baur, G. Trube, H. Möhler, P. Malherbe, Neuron, 1990, 5, 703). The oocytes are injected with 50 nl of cRNA dissolved in 5 mM of K-Hepes (pH 6.8). This solution comprises the transcripts coding for the various subunits at a concentration of 10 nM for α1, 10 nM for β2 and 50 nM for γ2. The RNA transcripts are synthesized from linearized plasmids encoding the desired protein using the message machine kit (Ambion) according to the recommendations of the manufacturers. A poly(A) tail of approximately 300 residues is added to the transcripts using yeast poly(A) polymerase (USB or Amersham). The cRNA combinations are coprecipitated from ethanol and stored at −20° C. The transcripts are quantified on agarose gels, after having been stained with the RNA stain Radiant Red (Bio-Rad), by comparing the intensities of the stainings with various amounts of molecular weight markers (RNA-Ladder, Gibco-BRL). The electrophysiological experiments are carried out by the two-electrode voltage clamp method at a holding potential of −80 mV. The medium comprises 90 mM of NaCl, 1 mM of KCl, 1 mM of MgCl2, 1 mM of CaCl2 and 10 mM of Na-Hepes (pH 7.4). GABA is applied for 20 s and a washing period of 4 min is allowed in order to provide for the complete […]. The perfusion system is cleaned between the applications of the compounds by washing with dimethyl sulfoxide to prevent contamination. The compounds are applied at a concentration of 100 microM in the absence of GABA in order to see whether they can act as channel agonists. To study the allosteric modulation, GABA is first of all applied alone and then in combination with either […] or 100 microM of compounds.
(§2) Thus, it is observed that the compound R-30 (100 μM) produces a 5 times greater stimulation of the GABA currents in the receptors comprising the β2 subunits with respect to the receptors carrying only the β1 subunit (table 4). At 10 μM, the compound R-30 produces a stimulation only in the receptors comprising the β2 subunit. The anticonvulsant loreclezole similarly enhances the activity of the GABA-A receptor by interacting with a site present on the receptors comprising the β2 subunit (and the β3 subunit) but not present on the receptors comprising the β1 subunit (P. B. Wingrove, K. A. Wafford, C. Bain, P. J. Whiting, Proc. Natl. Acad. Sci. USA, 1994, 91, 4569). […] The compounds of the present invention therefore appear to stimulate the activity of GABA by acting on a different site from that of α-EMTBL and related compounds, despite the apparent structural resemblance of these two classes of compounds.

[3] = system: α2β2 GABA-A recombinant receptors; assay: as above; format: cell-based; conditions: for % of stimulation of the GABA currents: α2β2
Description: as §1, §2

[4] = system: GABA-A receptors comprising β2 or β3 subunits versus β1 subunit; conditions: Wingrove et al. 1994; cited from earlier work

T1 sequence (P47870 25-512 limits assumed, one chain of several): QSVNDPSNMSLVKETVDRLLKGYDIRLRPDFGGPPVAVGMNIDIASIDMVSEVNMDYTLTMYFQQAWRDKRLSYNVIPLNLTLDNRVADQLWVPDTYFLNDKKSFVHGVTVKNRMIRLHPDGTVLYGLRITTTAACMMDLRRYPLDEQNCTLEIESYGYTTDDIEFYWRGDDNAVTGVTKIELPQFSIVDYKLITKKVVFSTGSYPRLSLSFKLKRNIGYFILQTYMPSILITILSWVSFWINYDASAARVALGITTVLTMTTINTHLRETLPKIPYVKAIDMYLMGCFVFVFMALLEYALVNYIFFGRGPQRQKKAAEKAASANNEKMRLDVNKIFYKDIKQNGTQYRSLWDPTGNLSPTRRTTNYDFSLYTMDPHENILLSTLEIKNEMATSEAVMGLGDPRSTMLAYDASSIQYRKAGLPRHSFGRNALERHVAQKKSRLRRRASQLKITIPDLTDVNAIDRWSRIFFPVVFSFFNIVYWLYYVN
T1 sequence (P18507 40-475, one chain of several): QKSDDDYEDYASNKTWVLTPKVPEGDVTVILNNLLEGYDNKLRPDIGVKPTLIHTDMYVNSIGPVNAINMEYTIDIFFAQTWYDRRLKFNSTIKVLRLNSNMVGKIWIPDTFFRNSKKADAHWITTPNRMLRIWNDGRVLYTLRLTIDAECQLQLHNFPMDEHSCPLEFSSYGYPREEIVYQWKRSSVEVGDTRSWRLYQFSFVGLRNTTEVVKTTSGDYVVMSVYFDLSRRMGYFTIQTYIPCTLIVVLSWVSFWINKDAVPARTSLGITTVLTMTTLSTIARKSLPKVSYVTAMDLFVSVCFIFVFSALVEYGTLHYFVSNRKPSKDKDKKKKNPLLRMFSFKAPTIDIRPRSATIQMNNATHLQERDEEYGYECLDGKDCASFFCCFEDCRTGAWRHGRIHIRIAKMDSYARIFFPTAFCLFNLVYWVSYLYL

Compound | % of stimulation of the GABA currents ([1]; 10 μM) | % of stimulation of the GABA currents ([1]; 100 μM) | power relative to the corresponding S isomer in stimulating GABA currents [1] | % of stimulation of the GABA currents ([2]; 10 μM) [%] | % of stimulation of the GABA currents ([2]; 100 μM) | % of stimulation of the GABA currents ([3]; 10 μM) | times greater stimulation of the GABA currents in receptors comprising β2 subunits with respect to β1 only ([3]; 100 μM) [times] | % of stimulation of the GABA currents ([3]; 100 μM) | affinity for receptors comprising β2 or β3 subunits relative to receptors comprising the β1 subunit [4] [times]
3-(R)-Benzyloxycarbonylamino-3,3-di(C-propyl)-1,4-butyrolactone [Compound R-30] | +51 ± 94% | +279 ± 94% | twice as powerful | −5 ± 11 | +92 ± 28% | +78 ± 4% | 5 | +588 ± 166% | –
Cl/C(=C\n1cncn1)c1ccc(Cl)cc1Cl [loreclezole] | – | – | – | – | – | – | – | – | 300
